≈ marks a conversion by molar mass, not a printed value. Entries after “also recorded” stand apart in the source; their conditions may differ. Read-outs that look alike come from different tables or passages of the source. Marks after values point to notes of the source that are not given here. Where a SMILES comes first, the peptide text is derived from it. Where no end group is shown, it is not given here. [ ]: non-standard residue; d: D form. hArg = N=C(N)NCCCC[C@H](N)C(=O)O; 2Thi = N[C@@H](Cc1cccs1)C(=O)O; Dab = NCC[C@H](N)C(=O)O; Dap = NC[C@H](N)C(=O)O; Aib = CC(C)(N)C(=O)O
Experiments:
[1] = test system: carbapenem-resistant P. aeruginosa (CRPA) SIPI-012; assay type: cell-based, Pseudomonas aeruginosa
Method: (§1) The antimicrobial activities of the peptides were tested against E. coli ATCC 25922, P. aeruginosa ATCC 27853, carbapenem-resistant P. aeruginosa SIPI-012, A. baumannii ATCC 19606, carbapenem-resistant A. baumannii SIPI-025, S. aureus ATCC 25923, and C. albicans ATCC 10231. The minimum inhibitory concentration (MIC) values were determined using the microdilution method according to Clinical and Laboratory Standards Institute guidelines ([CLSI, 2008], [2012]). The peptides were dissolved in 10 mM PB to a concentration of 1280 μg/mL as stock solutions.
(§2) For inoculum preparation of bacteria, morphologically similar colonies selected from fresh MH agar plates were transferred using a loop into approximately 10 mL of MH broth in a capped test tube and vortexed. The suspension was adjusted with MH broth to achieve a turbidity equivalent to a 0.5 McFarland standard (BaSO4 solution prepared spectrophotometrically). A working suspension was prepared by making a 1:15 dilution followed by a 1:20 dilution of the stock suspension with MH broth medium to obtain approximately 5 × 10^5 CFU/mL. For inoculum preparation of yeast, five fresh colonies of approximately 1 mm diameter were picked from 24-hour-old cultures of C. albicans and suspended in 5 mL of sterile 0.85% saline. The resulting suspension was vortexed and the cell density was adjusted by adding sufficient sterile saline to achieve a turbidity equivalent to a 0.5 McFarland standard. A working suspension was prepared by making a 1:100 dilution followed by a 1:20 dilution of the stock suspension with RPMI 1640 broth medium to obtain 0.5 × 10^3 to 2.5 × 10^3 CFU/mL. Intermediate twofold dilutions of the peptides were prepared in MH broth and RPMI 1640 medium, and 90 μL aliquots were added to each well in addition to 10 μL of the inoculum prepared above.
(§3) Each plate included a growth control well and a sterility (uninoculated) control well. Colistin, vancomycin hydrochloride, and amphotericin B were used as positive controls for gram-negative bacteria, gram-positive bacteria, and fungi, respectively. The bacterial and fungal plates were incubated at 37°C for 20 h and 35°C for 48 h, respectively, both under ambient atmosphere. The inhibition of microbial growth was assessed visually. The MICs were determined from independent triplicate assays.

[2] = test system: P. aeruginosa ATCC 27853; assay type: cell-based, Pseudomonas aeruginosa
Method: as §1, §2, §3

[3] = test system: A. baumannii ATCC 19606; assay type: cell-based, Acinetobacter baumannii
Method: as §1, §2, §3

[4] = test system: carbapenem-resistant A. baumannii (CRAB) SIPI-025; assay type: cell-based, Acinetobacter baumannii
Method: as §1, §2, §3

[5] = test system: E. coli ATCC 25922; assay type: cell-based, Escherichia coli
Method: as §1, §2, §3

[6] = test system: BALB/c mice; assay: In vivo acute toxicity, single injection; parameters: species or system mouse; conditions: monitored 24 h
Method: Six-week-old mice (approximate weight: 18–20 g, SFP grade) were bred and maintained under specific pathogen-free conditions on a 12 h light/dark cycle. The peptides were dissolved in PBS (pH 7.4) and three mice were used for each dose. As a control, colistin was administered in a similar manner. The mice were monitored for 24 h and mice were weighed at the end of the experiment. The procedure was evaluated and approved by the Ethical Committee of Experimental Animals of the Chia Tai Tianqing Pharmaceutical Group in August 2019.
As summarized in Figure 6, a toxicity score was assigned as follows: no abnormalities = without signs; mild depression, poor motility, purple-black tail, and recovery in 1 h = mild signs; serious depression and poor motility even under stimulation = manifest signs; sudden death within 10 min = died of toxic effects.

[7] = test system: P. aeruginosa ATCC 9027; assay: In vivo antibacterial activity, lethal intraperitoneal infection; conditions: BALB/c mice, lethal i.p. dose of P. aeruginosa ATCC 9027, 10 mg/kg i.p. at 1 and 8 h post-infection, n = 10
Method: The in vivo antibacterial activities of the peptides were evaluated in BALB/c mice using P. aeruginosa ATCC 9027 as a test strain. A total of 20 mice (6 weeks old, approximate weight: 18–20 g, SFP grade) were first used to measure the minimal lethal doses (MLD) with 5 mice for each inoculum. Cell numbers of selected strains were determined from the colony numbers from the plate count agar and four inocula (1 × 10^6, 5 × 10^6, 1 × 10^7, and 5 × 10^7 CFU/mouse) were administered via intraperitoneal injection. The minimal lethal dose was determined by measuring the mortality rate after 72 h. BALB/c mice were then injected intraperitoneally with a lethal dose of P. aeruginosa ATCC 9027. […] Colistin (10 mg/kg) was used as a positive control. The survival of the animals was monitored over 7 d.

[8] = plasma from healthy volunteers; conditions: human, 37°C, up to 36 h
[9] = test system: Trypsin; assay: trypsin in 0.1 M NH4HCO3 buffer (pH 8.2); conditions: 37°C, up to 24 h
[10] = test system: S. aureus ATCC 25923; assay: microbe, parasite or virus in culture; assay type: cell-based, Staphylococcus aureus; conditions: ATCC 25923, 20 h
Method: as §1, §2, §3

[11] = test system: human plasma proteases; assay: in vitro
Method: The peptides were mixed with plasma from healthy volunteers to a final concentration of 0.1 mg/mL and incubated at 37°C. Aliquots (20 or 40 μL) were removed after 0, 2, 4, 6, 8, 12, 24, and 36 h, mixed with 0.05% TFA to a final concentration of 0.01 mg/mL, and incubated on ice for 10 min. After centrifugation (12,000 × g, 5 min), the supernatant was stored at −20°C. The samples were analyzed as described in section “Hydrophobicity” and quantified as described in section “Stability Toward Tryptic Degradation.” All stability tests were performed at least in triplicate. The identities of the metabolites after 12 h of degradation by plasma proteases were determined by LC-MS on a Waters Acquity UPLC-QDa system.

[12] = test system: human erythrocytes; assay: Hemolytic activity assay; assay type: cell-based; conditions: human RBC in PB, 37°C, 1 h, OD420, total lysis control 0.1% SDS, three technical replicates
Method: Whole blood was obtained from a healthy volunteer. The red blood cells (RBC) were then centrifuged (800 × g, 10 min), washed twice with PB, resuspended in 1 mL of PB, and incubated with various concentrations of the peptides (32–128 μM) at 37°C for 1 h. As a positive control, total lysis of the RBC was accomplished by incubation with 0.1% SDS. For each condition, three technical replicates were performed. After incubation, the RBC were centrifuged at 800 × g for 10 min and the amount of hemoglobin released into the supernatant was determined by measuring the optical density OD420 using a SpectraMax i3x microplate reader (Molecular Devices) ([Zaet et al., 2017]).

[13] = test system: proteases secreted by S. aureus ATCC 25923; assay: in vitro; conditions: Staphylococcus aureus, S. aureus ATCC 25923 culture supernatant, pH 8
Method: (§4) The stabilities of the peptides toward proteases secreted by E. coli ATCC 25922, P. aeruginosa ATCC 27853, A. baumannii ATCC 19606, S. aureus ATCC 25923, and C. albicans ATCC 10231 were also examined. Microbial supernatants were prepared by resuspending single colonies of each strain in 20 mL of an appropriate culture medium followed by incubation at 37°C overnight. MH broth and 2% tryptone/2% dextrose were used as the culture media for bacteria and yeast, respectively. Each culture was then centrifuged at 12,000 × g for 10 min and the supernatant was adjusted to pH 8.0 with HCl or NaOH and then filtered through a 0.22 μm sterile filter membrane ([Zaet et al., 2017]). The peptides were then dissolved in the filtered supernatants to a concentration of 0.5 mg/mL, and the peptide-free supernatants were used as negative controls. The samples were incubated at 37°C for 24 h in a water bath and then analyzed by RP-HPLC as described above.

[14] = test system: C. albicans ATCC 10231; assay: microbe, parasite or virus in culture; assay type: cell-based, Candida albicans; conditions: ATCC 10231, 48 h
Method: as §1, §2, §3

[15] = test system: RAW 264.7 cells; assay: Cell viability assay (MTT); assay type: cell-based, mouse; conditions: 1–128 μM peptide in DMEM with 4% FBS, 42 h, 595 nm, triplicate
Method: The peptides were dissolved in ddH2O to a concentration of 256 μM. RAW 264.7 cells were cultured in 100 μL of DMEM containing 10% FBS and seeded at a density of 1 × 10^4 cells in a 96-well culture plate. The plate was incubated at 37°C under 5% CO2 atmosphere overnight. After attaining 80% confluency, the cells were treated with various concentrations of the peptides (1–128 μM) dissolved in DMEM containing 4% FBS for 42 h. Cytotoxicity was determined using the MTT tetrazolium reduction assay and quantified spectrophotometrically at 595 nm using a SpectraMax i3x microplate reader. The cell viability was calculated with respect to control samples treated only with DMEM containing 4% FBS ([Khara et al., 2016]). Each test was done in triplicate and the concentration required for 50% inhibition of viability (IC50) was determined.

[16] = test system: proteases secreted by P. aeruginosa ATCC 27853; assay: in vitro; conditions: Pseudomonas aeruginosa, P. aeruginosa ATCC 27853 culture supernatant, pH 8
Method: as §4

[17] = carbapenem-resistant (CRPA) SIPI-012, 20 h
[18] = carbapenem-resistant (CRAB) SIPI-025, 20 h

| Compound | fragment found [8] | fragment found [9] | MIC [1, 17] [µg/mL] | MIC ([2]; ATCC 27853, 20 h) [µg/mL] | MIC ([3]; ATCC 19606, 20 h) [µg/mL] | MIC [4, 18] [µg/mL] | MIC [10] [µg/mL] | MIC ([5]; ATCC 25922, 20 h) [µg/mL] | Hemolysis rate (%) ([12]; 64 μM) | Hemolysis rate (%) ([12]; 128 μM) | remaining at 24 h, 0.5 mg/mL [13] [%] | MIC [14] [µg/mL] | IC50 [15] [µM] | other results |
| --- | --- | --- | --- | --- | --- | --- | --- | --- | --- | --- | --- | --- | --- | --- |
| colistin [reference compound] | – | – | – | – | – | – | – | – | – | – | – | – | – | MIC ([1]; CRPA SIPI-012, MH broth, 37°C, 20 h, visual, independent triplicate assays): 1 µg/mL; MIC ([2]; P. aeruginosa ATCC 27853, MH broth, 37°C, 20 h, visual, independent triplicate assays): 0.5 µg/mL; MIC ([3]; A. baumannii ATCC 19606, MH broth, 37°C, 20 h, visual, independent triplicate assays): 0.25 µg/mL; MIC ([4]; CRAB SIPI-025, MH broth, 37°C, 20 h, visual, independent triplicate assays): 0.25 µg/mL; MIC ([5]; E. coli ATCC 25922, MH broth, 37°C, 20 h, visual, independent triplicate assays): 0.25 µg/mL; signs of toxicity after intravenous injection ([6]; single i.v. dose 10 mg/kg, three mice): two out of three mice dying immediately; signs of toxicity after intravenous injection ([6]; single i.v. dose 20 mg/kg, three mice): all three mice dying; survival rate ([7]; after 3 d): 100%; survival rate ([7]; after 7 d): 100% |
| [Aib]RLFKKLLKYLRK[2Thi] | (R) LFKKLLKYLRKThi 3–14, major, 12 h | (K) KLLK (Y) 6–9, major, 18 h; also recorded: (R) LFKK (L) 3–6, major, 18 h; also recorded: (K) LLK (Y) 7–9, major, 18 h; also recorded: (K) YLR (K) 10–12, major, 18 h; also recorded: (R) LFK (K) 3–5, major, 18 h | – | – | – | – | – | – | – | – | – | – | – | – |
| KRL[2Thi]KKLLKYLRK[2Thi] | (R) LThiKKLLKYLRKThi 3–14, major, 12 h; also recorded: (K) RLThiKKLLKYLRKThi 2–14, major, 12 h | (K) Thi 14, major, 18 h; also recorded: (R) LThiKK (L) 3–6, major, 18 h; also recorded: (K) KLLK (Y) 6–9, major, 18 h; also recorded: (K) LLK (Y) 7–9, major, 18 h; also recorded: (K) YLR (K) 10–12, major, 18 h; also recorded: (R) LThiK (K) 3–5, major, 18 h | – | – | – | – | – | – | – | – | – | – | – | – |
| KRLFKKLLKYLRKF-NH2 [Pep05] | – | – | 4 | 2 | 2 | 2 | 1 | 1 | 34.39 ± 1.49 | 49.18 ± 2.01% | 22.2 ± 4.47 | 4 | 13.4 ± 2.85 | metabolised at 2 h, 0.1 mg/mL [11]: > 40%; metabolised at 4 h, 0.1 mg/mL [11]: > 50%; signs of toxicity after intravenous injection ([6]; single i.v. dose, all tested doses (5, 10, 20 mg/kg), three mice per dose): no obvious abnormalities |
| CC(C)C[C@H](NC(=O)[C@H](Cc1ccc(O)cc1)NC(=O)[C@H](CCN)NC(=O)[C@H](CC(C)C)NC(=O)[C@H](CC(C)C)NC(=O)[C@H](CN)NC(=O)[C@H](CN)NC(=O)[C@H](Cc1ccccc1)NC(=O)[C@H](CC(C)C)NC(=O)[C@H](CCCCNC(=N)N)NC(=O)[C@@H](N)CN)C(=O)N[C@@H](CCCCNC(=N)N)C(=O)N[C@@H](CCN)C(=O)N[C@@H](Cc1cccs1)C(N)=O [UP11] (H-[Dap][hArg]LF[Dap][Dap]LL[Dab]YL[hArg][Dab][2Thi]-NH2) | – | – | 8 (≈ 4.62 µM) | 2 (≈ 1.15 µM) | 2 (≈ 1.15 µM) | 2 (≈ 1.15 µM) | 1 (≈ 0.577 µM) | 2 (≈ 1.15 µM) | 95.65 ± 2.31 | ∼100.00* % | 35.7 ± 3.82 | 4 (≈ 2.31 µM) | 28.3 ± 5.8 | remaining at 24 h, 0.5 mg/mL [16]: 22.4 ± 1.72% |
| DapHorLFDapDapLLDabYLHorDabF | (Hor) LFDapDapLLDabYLHorDabF 3–14, major, 12 h; also recorded: (Dap) HorLFDapDapLLDabYLHorDabF 2–14, major, 12 h | DapHorLFDapDapLLDab (Y) 1–9, major, 18 h; also recorded: DapHorLFDapDapLLDabYLHor (Dab) 1–12, major, 18 h | – | – | – | – | – | – | – | – | – | – | – | – |

Reference: PMC7688903 (Frontiers in Microbiology, 2020)
